In test [1] the target is T1, transthyretin (wt-TTR) (Homo sapiens, UniProt P02766).
T1 construct: recombinant wt-TTR, homotetramer
The experiment in a line: ligand fluorescence titration (blue shift of OleA emission, fitted to a binding equilibrium); urea unfolding shows stabilization.

For test [2], the target named is T2, transthyretin (L55P-TTR) (Homo sapiens, UniProt P02766, L75P).
T2 construct: recombinant L55P-TTR, homotetramer
Briefly: ligand fluorescence titration (blue shift of OleA emission); noisier, and no stabilization in urea unfolding. In kind it is binding.

One may read the Kd as a measure of binding affinity in units of concentration.

`C/C=C1/C(O)OC=C(C(=O)OC)[C@H]1CC(=O)OCCc1ccc(O)c(O)c1` (mixture of isomers) [OleA, oleuropein aglycone]: the Kd came out at 3.23 ± 0.32 µM in test [1] and 3.12 ± 0.62 µM in test [2].

For the origin of these results see PMC8953266, “The Transthyretin/Oleuropein Aglycone Complex: A New Tool against TTR Amyloidosis” (Pharmaceuticals, 2022).
